The subject of one assay is HEY C2 cells. Description: Colony formation (clonogenic) assay, cisplatin sensitivity. Format: cell-based, human. The method, then:
(§1) Cells and culture. Six human ovarian carcinoma cell lines (2008, A2780, HEY, IGROV-1, KF28 and UCI 107) were used in this study. Sublines stably resistant to DDP (2008/C13*5.25, A2780/CP70, HEY C2, IGROV-1/CP, KFr13 and UCI CPR) had been prepared from each parental line by repeated in vitro exposure to DDP as previously described (Mishima et al., 2002). All cell lines were maintained in drug-free RPMI-1640 medium (GIBCO, Inc.) with 10% fetal calf serum (GIBCO, Inc.) at 37° C. in a humidified atmosphere containing 5% CO2. The degree of resistance of each subline was determined at the time RNA was harvested using a clonogenic assay with continuous drug exposure as previously described (Mishima et al., 2002).
(§2) Cisplatin sensitivity. Colony formation assays were used to determine the sensitivity of the 6 pairs of DDP-sensitive and resistant cell lines to the cytotoxic effect of DDP.

Another assay has as its system UCI CPR cells. Described as above. The format is cell-based, human. The protocol:
as §1, §2

A further assay concerns A2780 cells. Described as above. The format is cell-based, human. The settings on record: parental A2780 cells, continuous drug exposure. The method, then:
as §1, §2

The subject of the next assay is IGROV-1/CP cells. The description is as above. Format: cell-based, human. The method, then: as §1, §2
The subject of another assay is HEY cells. The description is as above. The format is cell-based, human. The settings on record: parental HEY cells, continuous drug exposure. The method, then: as §1, §2
The next assay relates to KFr13 cells. The description is as above. Format: cell-based, human. The method, then:
as §1, §2

The test system of another assay is UCI 107 cells. The description is as above. The format is cell-based, human. The settings on record: parental UCI 107 cells, continuous drug exposure. The protocol: as §1, §2
For another assay, the system named is KF28 cells. The assay is described as above. The settings on record: parental KF28 cells, continuous drug exposure. Format: cell-based, human. The protocol:
as §1, §2

A further assay concerns IGROV-1 cells. The description is as above. The format is cell-based, human. The settings on record: parental IGROV-1 cells, continuous drug exposure. The protocol:
as §1, §2

The test system of another assay is A2780/CP70 cells. Described as above. The format is cell-based, human. The protocol: as §1, §2
A further assay deals with 2008 cells. The assay is described as above. The settings on record: parental 2008 cells, continuous drug exposure. Format: cell-based, human. The protocol: as §1, §2
The subject of a further assay is 2008/C13*5.25 cells. The description is as above. The format is cell-based, human. The method, then:
as §1, §2

In assay [1] the test system is cells transfected with the c-myc gene. The settings on record: cited from earlier work.
Assay [2] has as its system cells transfected with a metallothionein gene. The settings on record: cited from earlier work.

Structures are written as SMILES.

On to `N.N.[Cl][Pt][Cl]` [Cisplatin, cis-diamminedichloroplatinum], for which the “Fold-resistant (ratio of IC50 values)” value is given as 6.1 fold with HEY C2 cells (HEY C2 vs HEY); 8 fold with UCI CPR cells (UCI CPR vs UCI 107); 3.6 fold in the assay with IGROV-1/CP cells (IGROV-1/CP vs IGROV-1); 2.2 fold in the assay on KFr13 cells (KFr13 vs KF28); 11.9 fold in the assay on A2780/CP70 cells (A2780/CP70 vs A2780); 1.6 fold with 2008/C13*5.25 cells (2008/C13*5.25 vs 2008). Also, the concentration for half-maximal inhibition (IC50) turned out to be 4600 nM with HEY C2 cells (resistant HEY C2 cells, colony formation, continuous drug exposure); 8000 nM in the assay on UCI CPR cells (resistant UCI CPR cells, colony formation, continuous drug exposure); 210 nM with A2780 cells; 1080 nM in the assay with IGROV-1/CP cells (resistant IGROV-1/CP cells, colony formation, continuous drug exposure); 760 nM in the assay on HEY cells; 400 nM with KFr13 cells (resistant KFr13 cells, colony formation, continuous drug exposure). For the same molecule, the concentration for half-maximal inhibition (IC50) is 1000 nM in the assay with UCI 107 cells; 180 nM in the assay with KF28 cells; 300 nM in the assay on IGROV-1 cells; 2500 nM in the assay with A2780/CP70 cells (resistant A2780/CP70 cells, colony formation, continuous drug exposure); 700 nM with 2008 cells; 1100 nM with 2008/C13*5.25 cells (resistant 2008/C13*5.25 cells, colony formation, continuous drug exposure). For the same molecule, the “level of increased resistance” value in [1] is “less than 3 fold”; in [2] it was “less than 5 fold”.

In general, IC50 refers to the point on the concentration scale where inhibition reaches its midpoint.

These data come from US20060019268A1, “Molecular markers of cisplatin resistance in cancer and uses thereof” (Research Development Foundation, priority 2004, published 2006).
